Reference: ChEMBL document CHEMBL2303647, “Data associated with the publication PLoS ONE, 8(3), e57888, (2013) PMID: 23505445. Compounds: GSK PKIS; Assays: NIH NCATS”

Tests used:
[1] = target: T1, Coelenterazine h 2-monooxygenase (Renilla reniformis, UniProt P27652)
T1 sequence (P27652 whole entry): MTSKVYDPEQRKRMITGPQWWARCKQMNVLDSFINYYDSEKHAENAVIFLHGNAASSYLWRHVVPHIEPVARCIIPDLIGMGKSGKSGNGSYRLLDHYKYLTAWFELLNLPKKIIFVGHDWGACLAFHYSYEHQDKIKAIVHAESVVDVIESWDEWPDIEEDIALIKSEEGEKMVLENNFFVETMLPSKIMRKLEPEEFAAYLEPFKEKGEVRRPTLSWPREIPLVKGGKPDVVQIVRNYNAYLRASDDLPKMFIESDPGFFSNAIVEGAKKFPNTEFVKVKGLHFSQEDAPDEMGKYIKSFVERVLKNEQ
Description: GSK_PKIS: Inhibition of Sea Pansy Luciferase (Data from PubChem: AID 652015) [NIH NCATS]

[2] = target: Luciferin 4-monooxygenase (Photinus pyralis, UniProt P08659)
Sequence of Luciferin 4-monooxygenase (P08659 whole entry): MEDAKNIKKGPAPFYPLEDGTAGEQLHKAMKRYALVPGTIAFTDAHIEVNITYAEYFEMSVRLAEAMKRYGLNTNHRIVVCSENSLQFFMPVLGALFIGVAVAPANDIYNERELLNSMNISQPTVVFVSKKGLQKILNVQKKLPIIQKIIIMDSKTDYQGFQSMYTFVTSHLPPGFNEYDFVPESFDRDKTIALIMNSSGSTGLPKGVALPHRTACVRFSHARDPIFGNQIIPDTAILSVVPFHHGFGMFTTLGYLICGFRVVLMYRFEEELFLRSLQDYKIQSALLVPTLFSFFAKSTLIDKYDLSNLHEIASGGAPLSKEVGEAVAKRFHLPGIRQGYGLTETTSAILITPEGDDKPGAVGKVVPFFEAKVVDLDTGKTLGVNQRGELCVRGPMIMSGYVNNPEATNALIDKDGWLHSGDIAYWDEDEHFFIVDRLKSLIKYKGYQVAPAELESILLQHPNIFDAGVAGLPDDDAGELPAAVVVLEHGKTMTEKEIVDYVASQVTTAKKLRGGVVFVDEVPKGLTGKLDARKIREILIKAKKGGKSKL
Description: GSK_PKIS: Inhibition of Firefly Luciferase (Data from PubChem: AID 652016) [NIH NCATS]

AC50 ([1]; read-out: AC50) [µM] | AC50 ([2]; read-out: AC50) [µM] | Structure (SMILES) | AC50 [2] | AC50 [1]
 | 36.6 | CCc1cccc(CC)c1/C=C/c1cncc(C(=O)NC)c1 [GW450241X] |  | Phenotype: Inactive; Curve_Description: None
 |  | CCn1c(-c2nonc2N)nc2cncc(C(=O)NCCNC)c21 [GW876790X] | Phenotype: Inactive; Curve_Description: None | Phenotype: Inactive; Curve_Description: None
 |  | NS(=O)(=O)c1ccc(-c2ccc3c(NC(=O)C4CC4)n[nH]c3c2)cc1 | Phenotype: Inactive; Curve_Description: None | Phenotype: Inactive; Curve_Description: None
 |  | COc1cc2ncnc(Nc3ccc(C)c(O)c3)c2cc1OC.Cl [GW410563A] | Phenotype: Inactive; Curve_Description: None | Phenotype: Inactive; Curve_Description: None
 | 6.51 | COc1cc(Nc2ncc(-c3ccccc3)o2)cc(OC)c1 [GW631581B] |  | Phenotype: Inactive; Curve_Description: None
 |  | O=C1NC(=O)C(c2ccccc2Cl)=C1Nc1cccc(O)c1 | Phenotype: Inactive; Curve_Description: None | Phenotype: Inactive; Curve_Description: None
 | 18.3 | COc1cccc(-n2ncc3c(N/N=C/c4ccc(S(C)(=O)=O)cc4)ncnc32)c1 [PYRAZOLOPYRIMIDINE 2] |  | Phenotype: Inactive; Curve_Description: None
 | 16.3 | COc1cccc(-n2ncc3c(N/N=C/c4ccc(C(=O)NCCN(C)C)cc4)ncnc32)c1.Cl [GW784307A] |  | Phenotype: Inactive; Curve_Description: None
 | 32.6 | FC(F)(F)c1cccc(-c2nn3ncccc3c2-c2ccnc(Nc3ccc4c(c3)OCCO4)n2)c1 [GW827102X] |  | Phenotype: Inactive; Curve_Description: None
18.3 |  | CCS(=O)(=O)c1ccc(OC)c(Nc2ncc(-c3ccccc3Cl)o2)c1 [GW622055X] | Phenotype: Inactive; Curve_Description: None | 
 |  | CS(=O)(=O)CCNCc1ccc(-c2ccc3ncnc(Nc4ccc(OCc5ccccc5)c(C(F)(F)F)c4)c3c2)o1.Cl [GW574782A] | Phenotype: Inactive; Curve_Description: None | Phenotype: Inactive; Curve_Description: None
 | 20.6 | NS(=O)(=O)c1ccc(Nc2cc(-c3cccc(O)c3)n[nH]2)cc1 [GW831090X] |  | Phenotype: Inactive; Curve_Description: None
 | 41.1 | CC1=C(C(=O)Nc2ccc3[nH]ncc3c2)C(c2ccc3ccccc3c2)CC(=O)N1 (configuration not stated) [GSK-270822A] |  | Phenotype: Inactive; Curve_Description: None
 | 20.6 | O=C(Nc1n[nH]c2nc(-c3ccco3)c(Br)cc12)C1CC1 |  | Phenotype: Inactive; Curve_Description: None
20.6 | 29.1 | Nc1nc(-c2ccc3c(c2)C(=Cc2cc(Br)c(O)c(Br)c2)C(=O)N3)cs1 [GW407323A] |  | 
 | 1.03 | CCn1c(-c2nonc2N)nc2cnc(Oc3cccc(NC(=O)c4ccc(N(C)C)cc4)c3)cc21 [GSK-248233A] |  | Phenotype: Inactive; Curve_Description: None
 |  | C[C@@H](Oc1cc(-n2cnc3ccc(OC[C@@H](O)CO)cc32)sc1C(N)=O)c1ccccc1Cl [GSK-978744A] | Phenotype: Inactive; Curve_Description: None | Phenotype: Inactive; Curve_Description: None
 | 3.66 | COc1cc(/C=N/Nc2ncnc3[nH]ncc23)ccc1O [GW578748X] |  | Phenotype: Inactive; Curve_Description: None
 |  | O=C1NC(=O)C(c2ccc(Cl)cc2)=C1Nc1ccc(Cl)c(C(=O)O)c1 | Phenotype: Inactive; Curve_Description: None | Phenotype: Inactive; Curve_Description: None
 | 9.19 | CN1CCN(C(=O)c2ccc(NC(=O)Nc3ccc(N(C)c4ccnc(Nc5ccc(CS(C)(=O)=O)cc5)n4)cc3)cc2)CC1.Cl [GW830263A] |  | Phenotype: Inactive; Curve_Description: None
 |  | Cc1ccc(C(=O)NC(C)C)cc1-c1ccc(C(=O)NCC2CC2)cc1 [GW785974X] | Phenotype: Inactive; Curve_Description: None | Phenotype: Inactive; Curve_Description: None
 |  | Nc1nccc(-c2c(-c3ccc(F)cc3)nn3cc(C(F)(F)F)ccc23)n1 [GW568326X] | Phenotype: Inactive; Curve_Description: None | Phenotype: Inactive; Curve_Description: None

AC50 ([1]; read-out: AC50) [µM] | AC50 ([2]; read-out: AC50) [µM] | Structure (SMILES) | AC50 [2] | AC50 [1]
 |  | Cc1cccc(-c2n[nH]cc2-c2ccc3ncccc3n2)n1 [GW786460X] | Phenotype: Inactive; Curve_Description: None | Phenotype: Inactive; Curve_Description: None
25.9 |  | NC(=O)c1sc(-n2cnc3ccccc32)cc1OCc1ccccc1Br [GSK-1023156A] | Phenotype: Inactive; Curve_Description: None | 
23.1 |  | CN1CCN(CCCNc2nc3ccc(Oc4ccc(NC(=O)Nc5cc(C(F)(F)F)ccc5F)cc4)cc3[nH]2)CC1.Cl [GW700494A] | Phenotype: Inactive; Curve_Description: None | 
23.1 | 1.16 | Fc1ccc(-c2nn3ccccc3c2-c2ccncc2)cc1 [GW434756X] |  | 
 |  | COc1cc2ncn(-c3cc(OCc4ccccc4C(F)(F)F)c(C(N)=O)s3)c2cc1OC [GW843682X] | Phenotype: Inactive; Curve_Description: None | Phenotype: Inactive; Curve_Description: None
 |  | Cl.Fc1cccc(COc2ccc(Nc3ncnc4cc(-c5ccc[nH]5)sc34)cc2Cl)c1 [GW693881A] | Phenotype: Inactive; Curve_Description: None | Phenotype: Inactive; Curve_Description: None
 | 20.6 | COC(=O)Nc1nc2ccc(Oc3ccc(NC(=O)Nc4cccc(Cl)c4)cc3)cc2[nH]1.Cl [GW589961A] |  | Phenotype: Inactive; Curve_Description: None
 | 2.31 | COc1ccc(-c2ccc3c(NC(=O)C4CC4)n[nH]c3n2)cc1 |  | Phenotype: Inactive; Curve_Description: None
 |  | CNC(=O)c1cncc(/C=C/c2ccccc2C)c1 [GW445015X] | Phenotype: Inactive; Curve_Description: None | Phenotype: Inactive; Curve_Description: None
 |  | CCc1ccc(Oc2nccc(-c3c(-c4ccc(F)cc4)ncn3C3CCNCC3)n2)cc1 | Phenotype: Inactive; Curve_Description: None | Phenotype: Inactive; Curve_Description: None
41.1 |  | NCc1ccc(-n2c(-c3nonc3N)nc3cnccc32)cc1 | Phenotype: Inactive; Curve_Description: None | 
 |  | c1ccc(-c2n[nH]cc2-c2ccnc(-c3ccc(OCCn4ccnc4)cc3)c2)nc1 [GW711782X] | Phenotype: Inactive; Curve_Description: None | Phenotype: Inactive; Curve_Description: None
 | 41.1 | Cc1ccc2c(-c3ccnc(Nc4cccc(C(F)(F)F)c4)n3)c(-c3ccccc3)nn2n1 [GW829906X] |  | Phenotype: Inactive; Curve_Description: None
 | 5.8 | COc1cc(/C=N/Nc2ncnc3c2cnn3C(C)C)ccc1O [GW644007X] |  | Phenotype: Inactive; Curve_Description: None
 | 29.1 | COc1c(C(N)=O)cc(-c2ccc(Cl)cc2)cc1-c1ccc(S(N)(=O)=O)cc1 [GSK-711701A] |  | Phenotype: Inactive; Curve_Description: None
 | 20.6 | CNC(=O)c1cncc(/C=C/c2c(C)cccc2C)c1 [GW445012X] |  | Phenotype: Inactive; Curve_Description: None
 | 46.1 | N#Cc1ccc2c(-c3ccnc(NC4CC4)n3)c(-c3ccc(F)cc3)nn2c1 [GW561436X] |  | Phenotype: Inactive; Curve_Description: None
 | 36.6 | COc1ccc2cc(-c3c(-c4ccncc4)nc(-c4ccc([S+](C)[O-])cc4)n3C)ccc2c1 (configuration not stated) |  | Phenotype: Inactive; Curve_Description: None
 |  | CC(=O)Nc1cccc(C#Cc2cncnc2Nc2ccc(OCc3cccc(F)c3)c(Cl)c2)n1 [GW794726X] | Phenotype: Inactive; Curve_Description: None | Phenotype: Inactive; Curve_Description: None
20.6 | 25.9 | COc1cc(N2CCN(C(C)C)CC2)ccc1Nc1nc(Nc2ccc(F)cc2C(N)=O)c2cc[nH]c2n1 [GSK-1220512A] |  | 
36.6 |  | O=C1NC(=O)C(c2cccc(Cl)c2)=C1Nc1ccc(O)c(Cl)c1 | Phenotype: Inactive; Curve_Description: None | 

Structure (SMILES) | AC50 ([1]; read-out: AC50) [µM] | AC50 ([2]; read-out: AC50) [µM] | AC50 [2] | AC50 [1]
CCn1c(-c2nonc2N)nc2c(C#CC(C)(C)O)nc(O[C@@H](CN)c3ccccc3)cc21.O=C(O)C(F)(F)F [GSK-1007102B] | 29.1 |  | Phenotype: Inactive; Curve_Description: None | 
CCCN(CCS(C)(=O)=O)Cc1ccc(-c2ccc3ncnc(Nc4ccc(OCc5cccc(F)c5)c(Cl)c4)c3c2)o1.Cl [GW621823A] |  | 20.6 |  | Phenotype: Inactive; Curve_Description: None
Nc1ncnc2occ(-c3ccc(NC(=O)Nc4cc(C(F)(F)F)cc(C(F)(F)F)c4)cc3)c12 [GW795486X] | 16.3 |  | Phenotype: Inactive; Curve_Description: None | 
Cl.O=S(=O)(CCNCc1ccc(-c2ccc3ncnc(Nc4ccc(OCc5cccc(F)c5)c(Cl)c4)c3c2)o1)c1ccccc1 [GW633459A] |  | 29.1 |  | Phenotype: Inactive; Curve_Description: None
CN1CCN(Cc2ccc(-c3cc4ncnc(Nc5ccc(OCc6cccc(F)c6)c(Cl)c5)c4s3)o2)CC1 [GW784684X] | 20.6 |  | Phenotype: Inactive; Curve_Description: None | 
COc1ccc(C2=C(N3CCc4ccccc43)C(=O)NC2=O)cc1 | 20.6 |  | Phenotype: Inactive; Curve_Description: None | 
CCN1CCC(CC(=O)Nc2n[nH]c3nnc(-c4cccc(F)c4F)cc23)CC1.O=C(O)C(O)C(O)C(=O)O |  | 41.1 |  | Phenotype: Inactive; Curve_Description: None
NS(=O)(=O)c1ccc(-c2cc3ccncc3cc2OCc2ccccc2)cc1 [GSK-953913A] | 5.8 |  | Phenotype: Inactive; Curve_Description: None | 
